From patent publication US20250388560A1, “AROMATIC COMPOUND AND USE THEREOF” (HITGEN INC., priority 2023, published 2025)

These molecules were tested against TRIM21 protein (Homo sapiens (Human), UniProt P19474) (assay: SPR binding assay (Biacore 8K) of compounds to immobilised TRIM21 protein). Details: 25° C., steady state affinity model (1:1 binding model), read-out: TRIM21 Kd Test Value.
Chain of TRIM21 protein (P19474 whole entry, species assumed): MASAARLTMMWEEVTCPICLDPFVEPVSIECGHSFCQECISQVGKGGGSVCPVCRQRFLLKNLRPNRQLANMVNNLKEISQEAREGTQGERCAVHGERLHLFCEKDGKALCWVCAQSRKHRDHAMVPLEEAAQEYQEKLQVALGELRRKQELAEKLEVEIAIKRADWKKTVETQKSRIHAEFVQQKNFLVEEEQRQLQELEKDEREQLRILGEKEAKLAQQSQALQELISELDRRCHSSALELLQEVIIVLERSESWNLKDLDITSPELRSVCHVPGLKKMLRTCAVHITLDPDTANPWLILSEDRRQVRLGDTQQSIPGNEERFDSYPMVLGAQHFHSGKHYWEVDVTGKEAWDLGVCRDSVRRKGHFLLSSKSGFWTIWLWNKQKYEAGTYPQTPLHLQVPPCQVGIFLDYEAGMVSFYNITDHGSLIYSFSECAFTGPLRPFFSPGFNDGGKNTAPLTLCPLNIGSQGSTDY
Protocol: The protein fixation buffer, the running buffer A and the running buffer B were prepared and filtered through a […] membrane prior to use.
A surface of a CM5 chip was washed for three times with 50 mM NaOH at a flow rate of 60.0 μL/min and 60 seconds per wash. […] The CM5 chip was activated for 420 s at a flow rate of 6.0 μL/min. A strep tactin XT fixation buffer fixation built in the twin strep tag capture kit was used to prepare a 50.0 µg/mL Strep tactin XT. The Strep tactin XT was injected at a flow rate of 5.0 μL/min for 600 s. After injection of […], 1 M ethanolamine from the amine coupling kit was injected at a flow rate of 6.0 μL/min for 7 min to close the surface of the CM5 chip.
The running buffer A was used as the protein fixation buffer. The protein fixation buffer and the TRIM21 protein were mixed to prepare a 40.0 µg/mL mixed solution. The 40.0 µg/mL mixed solution was injected at flow rate of 5.0 μL/min for 600 s, and the TRIM21 protein was captured on the CM5 chip through Strep tactin XT.
A compound to be tested was diluted with 100% DMSO to a concentration that was 100 times a required final concentration and mixed evenly, and […] of such solution was added into […] of the running buffer A, followed by centrifugation at 15,000 rpm for 5 min to obtain an X compound solution contained with 1% DMSO.
The X compound was subjected to 8-point, 2-fold serial dilutions with the running buffer B, starting from an initial concentration. The diluted X compound was transferred into the 96-well plate for sample injection.
A Biacore 8K Control software was started, and tests were run in a 25° C. environment. During program running, the running buffer B was used at a flow rate of 30.0 μL/min. The running buffer B was injected for three times to complete balance. […] An injection needle was cleaned with 50% DMSO after each injection.
A response value of binding of the X compound and the TRIM21 protein was corrected after deducting a reference channel and 0 concentration. A binding affinity Kd was matched by a steady state affinity model (1:1 binding model) through the Biacore Insight Evaluation Software.
The binding affinities between X compounds of the embodiments of the present disclosure were tested according the above method.
`COc1ccccc1-c1ccc(C(=O)N(C)[C@H](C)C2CCCC2)c(S(C)(=O)=O)c1` [Compound 33] gave a Kd of 1000 to 10000 nM.
With `CSc1ccccc1-c1ccc(C(=O)N(C)C2CCCCC2)c(S(C)(=O)=O)c1` [Compound 9] the Kd was 1000 to 10000 nM.
Work on `COc1ccccc1-c1ccc(C(=O)N(C)Cc2cc[nH]c(=O)c2)c(S(C)(=O)=O)c1` [Compound 28] yielded a Kd of 10 to 100 nM.
With `CCC(CC)CN(C)C(=O)c1ccc(-c2ccccc2SC)cc1S(C)(=O)=O` [Compound 10] the Kd was 100 to 1000 nM.
With `CN(CC1CCCCC1)C(=O)c1ccc(-c2cccc3ccoc23)cc1S(C)(=O)=O` [Compound 47] the Kd was over 10000 nM.
Work on `CCc1ccccc1CN(C)C(=O)c1ccc(-c2ccccc2SC)cc1S(C)(=O)=O` [Compound 8] yielded a Kd of 100 to 1000 nM.
With `COc1ccccc1-c1ccc(C(=O)N(C)[C@H](C)C2CCC2)c(S(C)(=O)=O)c1` [Compound 24] the Kd was 1000 to 10000 nM.
In the case of `CSc1ccccc1-c1ccc(C(=O)N(C)Cc2cnoc2)c(S(C)(=O)=O)c1` [Compound 7], the Kd is reported as 100 to 1000 nM.
`COc1ccccc1-c1ccc(C(=O)N(C)[C@H](C)C2CC2)c(S(C)(=O)=O)c1` [Compound 32] gave a Kd of 1000 to 10000 nM.
`CSc1ccccc1-c1ccc(C(=O)N(C)Cc2cc[nH]c(=O)c2)c(S(C)(=O)=O)c1` [Compound 18] gave a Kd of 1000 to 10000 nM.
In the case of `COc1cc(CN(C)C(=O)c2ccc(-c3ccccc3OC)cc2S(C)(=O)=O)ccn1` [Compound 27], the Kd is reported as 10 to 100 nM.
`CN(CC1CCCCC1)C(=O)c1ccc(-c2ccc(F)cc2)cc1S(C)(=O)=O` [Compound 54] showed a Kd of 1000 to 10000 nM.
For `COc1ccccc1-c1ccc(C(=O)N(C)C(C)C2COC2)c(S(C)(=O)=O)c1` (stereo not shown) [Compound 31], the Kd was 1000 to 10000 nM.
Work on `CSc1ccccc1-c1ccc(C(=O)N(C)CC2CCOCC2)c(S(C)(=O)=O)c1` [Compound 23] yielded a Kd of 10 to 100 nM.
For `CSc1ccccc1-c1ccc(C(=O)N(C)[C@H](C)C2CC2)c(S(C)(=O)=O)c1` [Compound 19], the Kd was 100 to 1000 nM.
With `CSc1ccccc1-c1ccc(C(=O)N(C)Cc2ccsc2)c(S(C)(=O)=O)c1` [Compound 4] the Kd was 100 to 1000 nM.
Molecule `COc1cnccc1-c1ccc(C(=O)N(C)CC2CCCCC2)c(S(C)(=O)=O)c1` [Compound 43] has a Kd of 1000 to 10000 nM.
In the case of `CN(CC1CCCCC1)C(=O)c1ccc(-c2ccc(F)cc2C2CC2)cc1S(C)(=O)=O` [Compound 41], the Kd is reported as 10 to 100 nM.
`CSc1ccccc1-c1ccc(C(=O)N(C)CC2CCCCC2)c(S(C)(=O)=O)c1` [Compound 2] was tested, and the Kd was 100 to 1000 nM.
For `CN(CC1CCCCC1)C(=O)c1ccc(-c2ccccc2C(F)(F)F)cc1S(C)(=O)=O` [Compound 39], the Kd was 100 to 1000 nM.
Molecule `COc1ccccc1-c1ccc(C(=O)N(C)CC2COC2)c(S(C)(=O)=O)c1` [Compound 30] has a Kd of 1000 to 10000 nM.
`COc1ccccc1-c1ccc(C(=O)N(C)CC2CCC(O)CC2)c(S(C)(=O)=O)c1` (stereo not shown) [Compound 35] showed a Kd of 100 to 1000 nM.
Molecule `CN(CC1CCCCC1)C(=O)c1ccc(-c2ccccc2C(C)(C)O)cc1S(C)(=O)=O` [Compound 42] has a Kd of 100 to 1000 nM.
Work on `CC(C)c1ccccc1-c1ccc(C(=O)N(C)CC2CCCCC2)c(S(C)(=O)=O)c1` [Compound 46] yielded a Kd of 100 to 1000 nM.
In the case of `COc1cc(CN(C)C(=O)c2ccc(-c3ccccc3SC)cc2S(C)(=O)=O)ccn1` [Compound 16], the Kd is reported as 100 to 1000 nM.
With `COc1ccccc1-c1ccc(C(=O)N(C)CC2CCOCC2)c(S(C)(=O)=O)c1` [Compound 34] the Kd was 100 to 1000 nM.
`CNC(=O)c1ccc(-c2ccccc2SC)cc1S(C)(=O)=O` [Compound 1] showed a Kd of 100 to 1000 nM.
`CSc1ccccc1-c1ccc(C(=O)N(C)Cc2ccc3c(c2)OCO3)c(S(C)(=O)=O)c1` [Compound 3] gave a Kd of 10 to 100 nM.
Work on `COc1ccccc1-c1ccc(C(=O)N(C)CC2CCOC2)c(S(C)(=O)=O)c1` (stereo not shown) [Compound 25] yielded a Kd of 1000 to 10000 nM.
Molecule `COc1cc(F)ccc1-c1ccc(C(=O)N(C)CC2CCCCC2)c(S(C)(=O)=O)c1` [Compound 52] has a Kd of 1 to 10 nM.
Molecule `CSc1ccccc1-c1ccc(C(=O)N(C)CC2CCCCC2(F)F)c(S(C)(=O)=O)c1` (stereo not shown) [Compound 5] has a Kd of 1000 to 10000 nM.
In the case of `CSc1ccccc1-c1ccc(C(=O)N(C)[C@H](C)C2CCCC2)c(S(C)(=O)=O)c1` [Compound 20], the Kd is reported as 100 to 1000 nM.
`CSc1ccccc1-c1ccc(C(=O)N(C)CC2CCOC2)c(S(C)(=O)=O)c1` (stereo not shown) [Compound 15] was tested, and the Kd was 100 to 1000 nM.
For `CSc1ccccc1-c1ccc(C(=O)N(C)CC2CN(C(C)=O)C2)c(S(C)(=O)=O)c1` [Compound 13], the Kd was 100 to 1000 nM.
For `CSc1ccccc1-c1ccc(C(=O)N(C)CC2(F)CCCCC2)c(S(C)(=O)=O)c1` [Compound 6], the Kd was 100 to 1000 nM.
In the case of `COc1ccccc1-c1ccc(C(=O)N(C)Cc2cc[nH]c2)c(S(C)(=O)=O)c1` [Compound 29], the Kd is reported as 10 to 100 nM.
`CSc1ccccc1-c1ccc(C(=O)N(C)[C@H](C)C2CCC2)c(S(C)(=O)=O)c1` [Compound 14] gave a Kd of 100 to 1000 nM.
With `Cc1ccccc1-c1ccc(C(=O)N(C)CC2CCCCC2)c(S(C)(=O)=O)c1` [Compound 38] the Kd was 100 to 1000 nM.
In the case of `COc1ccccc1-c1ccc(C(=O)N(C)CC2CN(C(C)=O)C2)c(S(C)(=O)=O)c1` [Compound 26], the Kd is reported as over 10000 nM.
`CSc1ccccc1-c1ccc(C(=O)N(C)c2ccccc2)c(S(C)(=O)=O)c1` [Compound 12] showed a Kd of 1000 to 10000 nM.
`CN(CC1CCCCC1)C(=O)c1ccc(-c2ccccc2F)cc1S(C)(=O)=O` [Compound 45] was tested, and the Kd was 1000 to 10000 nM.
`CSc1ccccc1-c1ccc(C(=O)N(C)Cc2cc[nH]c2)c(S(C)(=O)=O)c1` [Compound 11] showed a Kd of 10 to 100 nM.
`COc1ccccc1-c1ccc(C(=O)N(C)CC2CCCCC2)c(S(C)(=O)=O)c1` [Compound 37] was tested, and the Kd was 100 to 1000 nM.
